From BindingDB's records for doi:10.1021/bi0200514 (Merck Research Laboratories, 2002)
“And” between values parts separate entries of the source, which are not always exact repeats. Identical values can stand only once. Positions of bridges follow the written chain, without caps; N, C: chain ends. Non-standard residues stand in square brackets, D forms with d. Residues, ends and D or L forms follow the SMILES beside them. *: point of attachment. Pentanoyl(5-guanidino) = NC(N)=NCCCCC(=O)*; Abu = CC[C@H](N)C(=O)O; Aoc = NCCCCCCCC(=O)O; Ava = NCCCCC(=O)O

Legend:
[1] = molecular target: Melanin-concentrating hormone receptor 2 (Homo sapiens, UniProt Q969V1)
Chain of Melanin-concentrating hormone receptor 2 (Q969V1 whole entry): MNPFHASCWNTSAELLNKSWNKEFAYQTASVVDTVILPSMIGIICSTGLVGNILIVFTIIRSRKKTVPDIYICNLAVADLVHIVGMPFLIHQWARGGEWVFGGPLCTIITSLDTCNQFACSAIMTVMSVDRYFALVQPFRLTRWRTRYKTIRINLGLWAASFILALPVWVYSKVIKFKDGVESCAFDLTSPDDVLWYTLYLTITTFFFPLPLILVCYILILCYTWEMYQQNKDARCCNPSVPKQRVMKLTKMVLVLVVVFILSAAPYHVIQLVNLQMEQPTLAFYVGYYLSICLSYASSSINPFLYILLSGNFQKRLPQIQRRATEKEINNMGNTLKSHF

[2] = molecular target: Melanin-concentrating hormone receptor 1 (Homo sapiens, UniProt Q99705)
Chain of Melanin-concentrating hormone receptor 1 (Q99705 as listed by the source): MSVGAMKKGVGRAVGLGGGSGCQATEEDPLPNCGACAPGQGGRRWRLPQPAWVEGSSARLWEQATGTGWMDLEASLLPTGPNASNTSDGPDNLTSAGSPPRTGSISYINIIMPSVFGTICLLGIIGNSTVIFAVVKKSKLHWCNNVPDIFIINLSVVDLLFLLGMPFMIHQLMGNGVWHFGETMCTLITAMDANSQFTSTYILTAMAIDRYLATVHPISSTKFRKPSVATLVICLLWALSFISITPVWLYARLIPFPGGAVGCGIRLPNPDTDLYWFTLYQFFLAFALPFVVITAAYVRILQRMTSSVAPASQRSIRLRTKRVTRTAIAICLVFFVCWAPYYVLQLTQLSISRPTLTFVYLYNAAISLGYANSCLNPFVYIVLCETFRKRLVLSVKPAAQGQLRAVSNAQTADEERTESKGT

Compound	Ki [1]	Ki [2]
CSCC[C@@H]1NC(=O)[C@@H](NC(=O)[C@H](CCCN=C(N)N)NC(C)=O)CSSC[C@@H](C(N)=O)NC(=O)CCCCNC(=O)[C@H](Cc2ccc(O)cc2)NC(=O)[C@H](C(C)C)NC(=O)[C@H](CCCN=C(N)N)NC(=O)CNC(=O)[C@H](CC(C)C)NC1=O [Ava14,15]	50 nM	1.8 nM
CSCC[C@@H]1NC(=O)[C@@H](NC(=O)[C@H](CCCNC(=N)N)NC(C)=O)CSSC[C@@H](C(N)=O)NC(=O)[C@@H]2CCCN2C(=O)[C@H](CCCNC(=N)N)NC(=O)[C@H](Cc2ccc(O)cc2)NC(=O)[C@H](C(C)C)NC(=O)[C@H](CCCNC(=N)N)NC(=O)CNC(=O)[C@H](CC(C)C)NC1=O [hAc-MCH(6-16)-NH2]	2.7 nM	0.16 nM
CSCC[C@@H]1NC(=O)[C@@H](NC(=O)[C@H](CCCNC(=N)N)NC(=O)[C@H](CC(C)C)NC(=O)[C@H](CCSC)NC(=O)[C@H](CC(=O)O)NC(=O)[C@H](Cc2ccccc2)NC(=O)[C@@H](N)CC(=O)O)CSSC[C@@H](C(=O)N[C@@H](Cc2c[nH]c3ccccc23)C(=O)N[C@@H](CCC(N)=O)C(=O)N[C@H](C(=O)O)C(C)C)NC(=O)[C@@H]2CCCN2C(=O)[C@H](CCCNC(=N)N)NC(=O)[C@H](Cc2ccc(O)cc2)NC(=O)[C@H](C(C)C)NC(=O)[C@H](CCCNC(=N)N)NC(=O)CNC(=O)[C@H](CC(C)C)NC1=O [hMCH]	2.9 nM	–
CC(C)C[C@@H]1NC(=O)[C@H](C)NC(=O)[C@@H](NC(=O)CCCCN=C(N)N)CSSC[C@@H](C(N)=O)NC(=O)CCCCNC(=O)[C@H](Cc2ccc(O)cc2)NC(=O)[C@H](C(C)C)NC(=O)[C@H](CCCN=C(N)N)NC(=O)CNC1=O [Gva6,Ala8,Ava14,15] ({Pentanoyl(5-guanidino)}-CALGRVY[Ava]C-NH2; disulfide 1-9)	33 nM	83 nM
CSCC[C@@H]1NC(=O)[C@@H](NC(=O)[C@@H](CCCN=C(N)N)NC(C)=O)CSSC[C@@H](C(N)=O)NC(=O)CCCCNC(=O)[C@H](Cc2ccc(O)cc2)NC(=O)[C@H](C(C)C)NC(=O)[C@H](CCCN=C(N)N)NC(=O)CCCCNC1=O [D-Arg6,Ava9,10,Ava14,15]	45 nM	69 nM
CSCC[C@@H]1NC(=O)[C@@H](NC(=O)[C@H](CCN=C(N)N)NC(C)=O)CSSC[C@@H](C(N)=O)NC(=O)CCCCNC(=O)[C@H](Cc2ccc(O)cc2)NC(=O)[C@H](C(C)C)NC(=O)[C@H](CCCN=C(N)N)NC(=O)CNC(=O)[C@H](CC(C)C)NC1=O [Gpr6,Ava14,15]	43 nM	43 nM
CSCC[C@@H]1NC(=O)[C@@H](N)CSSC[C@@H](C(N)=O)NC(=O)CCCCNC(=O)[C@H](Cc2ccc(O)cc2)NC(=O)[C@H](C(C)C)NC(=O)[C@H](CCCN=C(N)N)NC(=O)CNC(=O)[C@H](CC(C)C)NC1=O [des(Ac-Arg6),Ava14,15]	77 nM and 48 nM	300 nM and 190 nM
CC(=O)N[C@@H](CCCN=C(N)N)C(=O)N[C@H]1CSSC[C@@H](C(N)=O)NC(=O)CCCCNC(=O)[C@H](Cc2ccc(O)cc2)NC(=O)[C@H](C(C)C)NC(=O)[C@H](CCCN=C(N)N)NC(=O)CNC(=O)[C@H](CC(C)C)NC(=O)[C@H](C)NC1=O [Ala8,Ava14,15] (Ac-RCALGRVY[Ava]C-NH2; disulfide 2-10)	38 nM	–
CC[C@@H]1NC(=O)[C@@H](NC(=O)CCCCN=C(N)N)CSSC[C@@H](C(N)=O)NC(=O)CCCCNC(=O)[C@H](Cc2ccc(O)cc2)NC(=O)[C@H](C(C)C)NC(=O)[C@H](CCCN=C(N)N)NC(=O)CNC(=O)[C@H](CC(C)C)NC1=O [Gva6,alphaAbu8,Ava14,15] ({Pentanoyl(5-guanidino)}-C[Abu]LGRVY[Ava]C-NH2; disulfide 1-9)	43 nM	320 nM
CSCC[C@@H]1NC(=O)[C@@H](NC(=O)CCCCN=C(N)N)CSSC[C@@H](C(=O)O)NC(=O)CCCCNC(=O)[C@H](Cc2ccc(O)cc2)NC(=O)[C@H](C(C)C)NC(=O)[C@H](CCCN=C(N)N)NC(=O)CNC(=O)[C@H](CC(C)C)NC1=O [Gva6,Ava14,15, OH]	38 nM	66 nM
CSCC[C@@H]1NC(=O)[C@@H](NC(=O)CCCCN=C(N)N)CSSC[C@@H](C(N)=O)NC(=O)[C@H]2CC[C@H](CC2)NC(=O)[C@H](Cc2ccc(O)cc2)NC(=O)[C@H](C(C)C)NC(=O)[C@H](CCCN=C(N)N)NC(=O)CNC(=O)[C@H](CC(C)C)NC1=O [Gva6,cisAcx14,15]	3100 nM	10 nM
CSCC[C@@H]1NC(=O)[C@H](NC(=O)CCCCN=C(N)N)CSSC[C@@H](C(N)=O)NC(=O)CCCCNC(=O)[C@H](Cc2ccc(O)cc2)NC(=O)[C@H](C(C)C)NC(=O)[C@H](CCCN=C(N)N)NC(=O)CNC(=O)[C@H](CC(C)C)NC1=O [Gva6,D-Cys7,Ava14,15]	25 nM	120 nM
CSCC[C@@H]1NC(=O)[C@@H](NC(=O)CCCN=C(N)N)CSSC[C@@H](C(N)=O)NC(=O)CCCCNC(=O)[C@H](Cc2ccc(O)cc2)NC(=O)[C@H](C(C)C)NC(=O)[C@H](CCCN=C(N)N)NC(=O)CNC(=O)[C@H](CC(C)C)NC1=O [Gbu6,Ava14,15]	45 nM	7.9 nM
CSCC[C@@H]1NC(=O)[C@@H](NC(=O)CCCCN=C(N)N)CSSC[C@@H](C(N)=O)NC(=O)CCCCNC(=O)[C@H](Cc2ccc(O)cc2)NC(=O)[C@H](C)NC(=O)[C@H](CCCN=C(N)N)NC(=O)CNC(=O)[C@H](CC(C)C)NC1=O [Gva6,Ala12,Ava14,15] ({Pentanoyl(5-guanidino)}-CMLGRAY[Ava]C-NH2; disulfide 1-9)	35 nM	25 nM
CSCC[C@@H]1NC(=O)[C@@H](NC(=O)CCCCN=C(N)N)CSSC[C@@H](C(N)=O)NC(=O)CCCNC(=O)[C@H](Cc2ccc(O)cc2)NC(=O)[C@H](C(C)C)NC(=O)[C@H](CCCN=C(N)N)NC(=O)CNC(=O)[C@H](CC(C)C)NC1=O [Gva6,gammaAbu14,15]	48 nM	24 nM
CSCC[C@@H]1NC(=O)[C@@H](NC(=O)CCCCN=C(N)N)CSSC[C@@H](C(N)=O)NC(=O)[C@@H]2CCCN2C(=O)[C@H](CCCN=C(N)N)NC(=O)[C@H](Cc2ccc(O)cc2)NC(=O)[C@H](C(C)C)NC(=O)[C@H](CCCN=C(N)N)NC(=O)CCCCNC1=O [Gva6,Ava9,10]	48 nM	5 nM
CSCC[C@@H]1NC(=O)[C@@H](NC(=O)CCCCN=C(N)N)CSSC[C@@H](C(N)=O)NC(=O)CCCCNC(=O)[C@H](Cc2ccc(O)cc2)NC(=O)[C@H](C(C)C)NC(=O)[C@H](CCCN=C(N)N)NC(=O)CCCCNC1=O [Gva6,Ava9,10,Ava14,15] ({Pentanoyl(5-guanidino)}-CM[Ava]RVY[Ava]C-NH2; disulfide 1-8)	40 nM	45 nM
CCCC[C@@H]1NC(=O)[C@@H](NC(=O)CCCCN=C(N)N)CSSC[C@@H](C(N)=O)NC(=O)CCCCNC(=O)[C@H](Cc2ccc(O)cc2)NC(=O)[C@H](C(C)C)NC(=O)[C@H](CCCN=C(N)N)NC(=O)CNC(=O)[C@H](CC(C)C)NC1=O [Gva6,Nle8,Ava14,15]	70 nM	4.7 nM
CSCC[C@@H]1NC(=O)[C@@H](NC(=O)[C@@H](CCCN=C(N)N)NC(C)=O)CSSC[C@@H](C(N)=O)NC(=O)CCCCNC(=O)[C@H](Cc2ccc(O)cc2)NC(=O)[C@H](C(C)C)NC(=O)[C@H](CCCN=C(N)N)NC(=O)CNC(=O)[C@H](CC(C)C)NC1=O [D-Arg6,Ava14,15]	65 nM	11.3 nM
CC(=O)N[C@@H](CCCN=C(N)N)C(=O)N[C@H]1CSSC[C@@H](C(N)=O)NC(=O)[C@@H]2CCCN2C(=O)[C@H](CCCN=C(N)N)NC(=O)[C@H](Cc2ccc(O)cc2)NC(=O)[C@H](C(C)C)NC(=O)[C@H](CCCN=C(N)N)NC(=O)CCCCCCCNC1=O [Aoct8,9,10] (Ac-RC[Aoc]RVYRPC-NH2; disulfide 2-9)	63 nM	4800 nM
CSCC[C@@H]1NC(=O)[C@@H](NC(=O)CCCCN=C(N)N)CSSC[C@@H](C(N)=O)NC(=O)CCCCNC(=O)[C@H](Cc2ccc(O)cc2)NC(=O)[C@H](C(C)C)NC(=O)[C@H](CCCN=C(N)N)NC(=O)CNC1=O [Gva6,desLeu9,Ava14,15] ({Pentanoyl(5-guanidino)}-CMGRVY[Ava]C-NH2; disulfide 1-8)	20 nM	1350 nM
CSCC[C@@H]1NC(=O)[C@H](NC(=O)[C@H](CCCN=C(N)N)NC(C)=O)CSSC[C@@H](C(N)=O)NC(=O)CCCCNC(=O)[C@H](Cc2ccc(O)cc2)NC(=O)[C@H](C(C)C)NC(=O)[C@H](CCCN=C(N)N)NC(=O)CNC(=O)[C@H](CC(C)C)NC1=O [D-Cys7,Ava14,15]	20 nM	340 nM
